Literature values, collected in patent US8802735B2, “(Z)-2-cyano-3-hydroxy-but-2-enoic acid-(4'-trifluormethylphenyl)-amide tablet formulations with improved stability” (Sanofi, priority 2009, dated 2014).

Molecular target: dihydroorotate dehydrogenase (Homo sapiens, UniProt Q02127)
Conditions: Bruneau J-M, et al., Biochem. J. 1998

Sequence of dihydroorotate dehydrogenase (Q02127 whole entry): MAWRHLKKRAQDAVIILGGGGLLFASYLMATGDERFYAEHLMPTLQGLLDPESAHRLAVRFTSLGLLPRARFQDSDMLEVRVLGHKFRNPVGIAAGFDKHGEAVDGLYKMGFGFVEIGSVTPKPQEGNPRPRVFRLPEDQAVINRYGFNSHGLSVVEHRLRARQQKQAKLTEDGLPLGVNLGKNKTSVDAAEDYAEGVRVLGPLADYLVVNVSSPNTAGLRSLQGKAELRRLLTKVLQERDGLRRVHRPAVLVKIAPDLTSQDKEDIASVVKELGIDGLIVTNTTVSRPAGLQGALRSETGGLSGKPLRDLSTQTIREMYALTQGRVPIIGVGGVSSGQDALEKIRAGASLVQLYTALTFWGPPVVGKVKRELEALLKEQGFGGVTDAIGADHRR

Q: With `C/C(O)=C(\C#N)C(=O)Nc1ccc(C(F)(F)F)cc1` [Teriflunomide, (Z)-2-cyano-3-hydroxy-but-2-enoic acid-(4′-trifluoromethylphenyl)-amide] as the compound, how does the “inhibition of the enzyme dihydroorotate dehydrogenase” value read?
A: inhibits
